Test results: PubChem BioAssay AID248 (DTP/NCI, 2004)
Where “and” joins values, the source holds several entries; their conditions need not be identical. Equal entries are not always repeated. Toxic doses and inconclusive results are not listed. Rule as the data show it: active = T/C of 150% or more; inactive = T/C below 125%.

System: L1210 leukemia ip in BDF1 mice, survival T/C
Assay: NCI In Vivo Anticancer Drug Screen. Data for tumor model L1210 Leukemia (intraperitoneal) in B6D2F1 (BDF1) mice
Conditions: higher = longer survival
In short: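 Read-out is survival time, reported as the treated-group measurement over the vehicle-control measurement.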

[1] = endpoint: mean survival time, dose: 100.0 mg/kg/injection, schedule: Q01DX009 (ip), vehicle: saline with Tween-80
[2] = endpoint: mean survival time, dose: 100.0 mg/kg/injection, schedule: Q04DX003 (ip), vehicle: saline with Tween-80
[3] = endpoint: mean survival time, dose: 200.0 mg/kg/injection, schedule: Q01DX009 (ip), vehicle: saline with Tween-80
[4] = endpoint: mean survival time, dose: 200.0 mg/kg/injection, schedule: Q04DX003 (ip), vehicle: saline with Tween-80
[5] = endpoint: mean survival time, dose: 400.0 mg/kg/injection, schedule: Q01DX009 (ip), vehicle: saline with Tween-80
[6] = endpoint: mean survival time, dose: 400.0 mg/kg/injection, schedule: Q04DX003 (ip), vehicle: saline with Tween-80

Measured: T/C

Cc1c(N)nc([C@H](CC(N)=O)NC[C@H](N)C(N)=O)nc1C(=O)N[C@H](C(=O)N[C@H](C)[C@@H](O)[C@H](C)C(=O)N[C@H](C(=O)NCCc1nc(-c2nc(C(=O)NCCC[S+](C)C)cs2)cs1)[C@@H](C)O)C(OC1OC(CO)C(O)C(O)C1OC1OC(CO)C(O)C(OC(N)=O)C1O)c1cnc[nH]1 (stereo not given in full)
inactive: endpoint: mean survival time, dose: 0.35 mg/kg/injection, schedule: Q01DX009 (ip), vehicle: saline 99 % of control and 100 % of control | endpoint: mean survival time, dose: 0.7 mg/kg/injection, schedule: Q01DX009 (ip), vehicle: saline 100 % of control | endpoint: mean survival time, dose: 1.3 mg/kg/injection, schedule: Q01DX009 (ip), vehicle: saline 99 % of control and 107 % of control | endpoint: mean survival time, dose: 2.0 mg/kg/injection, schedule: Q01DX009 (ip), vehicle: saline 101 % of control | endpoint: mean survival time, dose: 2.0 mg/kg/injection, schedule: Q04DX002 (ip), vehicle: saline 97 % of control | endpoint: mean survival time, dose: 2.5 mg/kg/injection, schedule: Q01DX009 (ip), vehicle: saline 110 % of control and 119 % of control | endpoint: mean survival time, dose: 4.0 mg/kg/injection, schedule: Q01DX009 (ip), vehicle: saline 107 % of control and 109 % of control and 112 % of control | endpoint: mean survival time, dose: 4.0 mg/kg/injection, schedule: Q04DX002 (ip), vehicle: saline 103 % of control and 105 % of control | endpoint: mean survival time, dose: 5.0 mg/kg/injection, schedule: Q01DX009 (ip), vehicle: saline 94 % of control and 107 % of control | endpoint: mean survival time, dose: 5.8 mg/kg/injection, schedule: Q01DX009 (ip), vehicle: clinical formulation 93 % of control | endpoint: mean survival time, dose: 7.81 mg/kg/injection, schedule: Q01DX009 (ip), vehicle: saline 109 % of control | endpoint: mean survival time, dose: 8.0 mg/kg/injection, schedule: Q01DX009 (ip), vehicle: saline 104 % of control and 109 % of control and 110 % of control | endpoint: mean survival time, dose: 8.0 mg/kg/injection, schedule: Q04DX002 (ip), vehicle: saline 100 % of control and 108 % of control | endpoint: mean survival time, dose: 8.7 mg/kg/injection, schedule: Q01DX009 (ip), vehicle: clinical formulation 95 % of control | endpoint: mean survival time, dose: 10.0 mg/kg/injection, schedule: Q01DX009 (ip), vehicle: saline 106 % of control and 110 % of control | endpoint: mean survival time, dose: 13.0 mg/kg/injection, schedule: Q01DX009 (ip), vehicle: clinical formulation 92 % of control | endpoint: mean survival time, dose: 15.62 mg/kg/injection, schedule: Q01DX009 (ip), vehicle: saline 104 % of control | endpoint: mean survival time, dose: 16.0 mg/kg/injection, schedule: Q01DX009 (ip), vehicle: saline 93 % of control and 108 % of control and 114 % of control | endpoint: mean survival time, dose: 16.0 mg/kg/injection, schedule: Q04DX002 (ip), vehicle: saline 97 % of control and 103 % of control | endpoint: mean survival time, dose: 20.0 mg/kg/injection, schedule: Q01DX009 (ip), vehicle: clinical formulation 93 % of control | endpoint: mean survival time, dose: 30.0 mg/kg/injection, schedule: Q01DX009 (ip), vehicle: clinical formulation 87 % of control | endpoint: mean survival time, dose: 31.0 mg/kg/injection, schedule: Q04DX002 (ip), vehicle: saline 103 % of control and 106 % of control | endpoint: mean survival time, dose: 31.25 mg/kg/injection, schedule: Q01DX001 (ip), vehicle: saline 100 % of control | endpoint: mean survival time, dose: 31.25 mg/kg/injection, schedule: Q01DX009 (ip), vehicle: saline 116 % of control | endpoint: mean survival time, dose: 32.0 mg/kg/injection, schedule: Q01DX009 (ip), vehicle: saline 113 % of control and 91 % of control and 92 % of control | endpoint: mean survival time, dose: 62.0 mg/kg/injection, schedule: Q04DX002 (ip), vehicle: saline 93 % of control and 101 % of control | endpoint: mean survival time, dose: 62.5 mg/kg/injection, schedule: Q01DX001 (ip), vehicle: saline 122 % of control | endpoint: mean survival time, dose: 62.5 mg/kg/injection, schedule: Q01DX009 (ip), vehicle: saline 107 % of control | endpoint: mean survival time, dose: 125.0 mg/kg/injection, schedule: Q01DX001 (ip), vehicle: saline 106 % of control | endpoint: mean survival time, dose: 125.0 mg/kg/injection, schedule: Q01DX009 (ip), vehicle: saline 97 % of control | endpoint: mean survival time, dose: 250.0 mg/kg/injection, schedule: Q01DX001 (ip), vehicle: saline 106 % of control | endpoint: median survival time, dose: 3.0 mg/kg/injection, schedule: Q01DX009 (ip), vehicle: saline 99 % of control | endpoint: median survival time, dose: 4.0 mg/kg/injection, schedule: Q01DX009 (ip), vehicle: saline 100 % of control and 110 % of control | endpoint: median survival time, dose: 5.0 mg/kg/injection, schedule: Q01DX009 (ip), vehicle: saline 101 % of control | endpoint: median survival time, dose: 8.0 mg/kg/injection, schedule: Q01DX009 (ip), vehicle: saline 106 % of control and 120 % of control | endpoint: median survival time, dose: 8.4 mg/kg/injection, schedule: Q01DX009 (ip), vehicle: saline 98 % of control | endpoint: median survival time, dose: 14.0 mg/kg/injection, schedule: Q01DX009 (ip), vehicle: saline 96 % of control | endpoint: median survival time, dose: 16.0 mg/kg/injection, schedule: Q01DX009 (ip), vehicle: saline 106 % of control | endpoint: median survival time, dose: 23.0 mg/kg/injection, schedule: Q01DX009 (ip), vehicle: saline 96 % of control | endpoint: median survival time, dose: 32.0 mg/kg/injection, schedule: Q01DX009 (ip), vehicle: saline 100 % of control | endpoint: median survival time, dose: 39.0 mg/kg/injection, schedule: Q01DX009 (ip), vehicle: saline 88 % of control

CC1(C)CC(=O)CC(C)(C)ON1
inactive: endpoint: mean survival time, dose: 100.0 mg/kg/injection, schedule: Q04DX002 (ip), vehicle: saline with Tween-80 99 % of control | endpoint: mean survival time, dose: 200.0 mg/kg/injection, schedule: Q04DX002 (ip), vehicle: saline with Tween-80 99 % of control | endpoint: mean survival time, dose: 400.0 mg/kg/injection, schedule: Q04DX002 (ip), vehicle: saline with Tween-80 99 % of control

CCC(Cl)COP(=O)(CC(Cl)CC)OC(C(C)C)P(=O)(OCC(Cl)CC)OCC(Cl)CC (stereo not given)
inactive: endpoint: mean survival time, dose: 100.0 mg/kg/injection, schedule: Q01DX001 (ip), vehicle: Klucel (hydroxypropylcellulose) (HPC) 108 % of control | endpoint: mean survival time, dose: 200.0 mg/kg/injection, schedule: Q01DX001 (ip), vehicle: Klucel (hydroxypropylcellulose) (HPC) 101 % of control | endpoint: mean survival time, dose: 400.0 mg/kg/injection, schedule: Q01DX001 (ip), vehicle: Klucel (hydroxypropylcellulose) (HPC) 101 % of control

CCc1ccccc1NC(=O)Sc1ccccc1O
inactive: endpoint: mean survival time, dose: 6.25 mg/kg/injection, schedule: Q01DX009 (ip), vehicle: saline with Tween-80 105 % of control | endpoint: mean survival time, dose: 12.5 mg/kg/injection, schedule: Q01DX009 (ip), vehicle: saline with Tween-80 105 % of control | endpoint: mean survival time, dose: 25.0 mg/kg/injection, schedule: Q01DX009 (ip), vehicle: saline with Tween-80 93 % of control and 102 % of control

COc1ccccc1N1CCN(CCCC(O)c2ccc(F)cc2)CC1 (stereo not given)
inactive: endpoint: mean survival time, dose: 10.0 mg/kg/injection, schedule: Q04DX003 (ip), vehicle: Klucel (hydroxypropylcellulose) (HPC) 91 % of control | endpoint: mean survival time, dose: 12.5 mg/kg/injection, schedule: Q01DX009 (ip), vehicle: Klucel (hydroxypropylcellulose) (HPC) 98 % of control | endpoint: mean survival time, dose: 20.0 mg/kg/injection, schedule: Q04DX003 (ip), vehicle: Klucel (hydroxypropylcellulose) (HPC) 98 % of control | endpoint: mean survival time, dose: 25.0 mg/kg/injection, schedule: Q01DX009 (ip), vehicle: Klucel (hydroxypropylcellulose) (HPC) 100 % of control | endpoint: mean survival time, dose: 40.0 mg/kg/injection, schedule: Q04DX003 (ip), vehicle: Klucel (hydroxypropylcellulose) (HPC) 90 % of control | endpoint: mean survival time, dose: 50.0 mg/kg/injection, schedule: Q01DX009 (ip), vehicle: Klucel (hydroxypropylcellulose) (HPC) 98 % of control

O=C(CNC(=O)c1ccccc1)c1ccccc1
inactive: endpoint: mean survival time, dose: 100.0 mg/kg/injection, schedule: Q04DX002 (ip), vehicle: Klucel (hydroxypropylcellulose) (HPC) 105 % of control | endpoint: mean survival time, dose: 200.0 mg/kg/injection, schedule: Q04DX002 (ip), vehicle: Klucel (hydroxypropylcellulose) (HPC) 102 % of control | endpoint: mean survival time, dose: 400.0 mg/kg/injection, schedule: Q04DX002 (ip), vehicle: Klucel (hydroxypropylcellulose) (HPC) 108 % of control

O=C1OCC/C1=C\CCCCCCCCC1CO1 (stereo not given)
inactive: endpoint: mean survival time, dose: 25.0 mg/kg/injection, schedule: Q04DX002 (ip), vehicle: saline 94 % of control | endpoint: mean survival time, dose: 50.0 mg/kg/injection, schedule: Q04DX002 (ip), vehicle: saline 102 % of control | endpoint: mean survival time, dose: 100.0 mg/kg/injection, schedule: Q04DX002 (ip), vehicle: saline 94 % of control and 101 % of control

COc1ccc(CC(=O)N2CCc3cc(OC)c(OC)cc3C2O)cc1OC (stereo not given)
inactive: [1] 96 % of control | [2] 100 % of control | [3] 91 % of control | [4] 103 % of control | [5] 88 % of control | [6] 102 % of control

Cc1cc(=O)[nH]c(N(CCO)CCO)n1
inactive: [1] 92 % of control | [2] 94 % of control | [3] 100 % of control | [4] 96 % of control | [5] 100 % of control | [6] 100 % of control

C1CN(CC2COC(CN3CCOCC3)CO2)CCO1 (stereo not given)
inactive: endpoint: mean survival time, dose: 100.0 mg/kg/injection, schedule: Q04DX003 (ip), vehicle: saline 106 % of control | endpoint: mean survival time, dose: 200.0 mg/kg/injection, schedule: Q04DX003 (ip), vehicle: saline 97 % of control | endpoint: mean survival time, dose: 400.0 mg/kg/injection, schedule: Q04DX003 (ip), vehicle: saline 98 % of control

CCC(CO)NC(=O)/C=C/c1cc(OC)ccc1OC (stereo not given)
inactive: endpoint: mean survival time, dose: 150.0 mg/kg/injection, schedule: Q04DX003 (ip), vehicle: saline with Tween-80 111 % of control | endpoint: mean survival time, dose: 300.0 mg/kg/injection, schedule: Q04DX003 (ip), vehicle: saline with Tween-80 102 % of control | endpoint: mean survival time, dose: 600.0 mg/kg/injection, schedule: Q04DX003 (ip), vehicle: saline with Tween-80 109 % of control
